Converted amounts (≈) assume the structure as drawn. The source made the active and inactive calls. The rule behind the calls is not given here.
Experiments:
[1] = test system: Pseudomonas aeruginosa; assay: Antimicrobial activity against Pseudomonas aeruginosa MTCC 2453 assessed as inhibition of biofilm formation after 24 hrs by crystal violet staining-based assay; format: functional, organism-based; conditions: MTCC 2453, 24 h
[2] = test system: Bacillus subtilis; assay: Bactericidal activity against Bacillus subtilis MTCC 121 after 24 hrs by agar plating method; format: functional; conditions: MTCC 121, 24 h
[3] = test system: Candida albicans; conditions: MTCC 3017
Description: (§1) Antimicrobial activity against Candida albicans MTCC 3017 after 24 hrs by well diffusion method

[4] = test system: Staphylococcus aureus; assay: Bactericidal activity against Staphylococcus aureus MTCC 96 after 24 hrs by agar plating method; format: functional; conditions: MTCC 96, 24 h
[5] = test system: Staphylococcus aureus; assay: Antimicrobial activity against Staphylococcus aureus MLS-16 MTCC 2940 after 24 hrs by well diffusion method; format: functional
[6] = test system: Raoultella planticola; assay: Bactericidal activity against Klebsiella planticola MTCC 530 after 24 hrs by agar plating method; format: functional; conditions: MTCC 530, 24 h
[7] = test system: A549; assay: Cytotoxicity against human A549 cells after 24 hrs by MTT assay; format: functional, cell-based; conditions: A549, 24 h
[8] = test system: MCF7; assay: Cytotoxicity against human MCF7 cells after 24 hrs by MTT assay; format: functional, cell-based; conditions: MCF7, 24 h
[9] = test system: Pseudomonas aeruginosa; assay: Antimicrobial activity against Pseudomonas aeruginosa MTCC 2453 after 24 hrs by well diffusion method; format: functional
[10] = test system: Raoultella planticola; assay: Antimicrobial activity against Klebsiella planticola MTCC 530 after 24 hrs by well diffusion method; format: functional
[11] = test system: Raoultella planticola; assay: Antimicrobial activity against Klebsiella planticola MTCC 530 assessed as inhibition of biofilm formation after 24 hrs by crystal violet staining-based assay; format: functional, organism-based; conditions: MTCC 530, 24 h
[12] = test system: Pseudomonas aeruginosa; assay: Bactericidal activity against Pseudomonas aeruginosa MTCC 2453 after 24 hrs by agar plating method; format: functional; conditions: MTCC 2453, 24 h
[13] = test system: Micrococcus luteus; assay: Antimicrobial activity against Micrococcus luteus MTCC 2470 after 24 hrs by well diffusion method; format: functional
[14] = test system: Micrococcus luteus; assay: Antimicrobial activity against Micrococcus luteus MTCC 2470 assessed as inhibition of biofilm formation after 24 hrs by crystal violet staining-based assay; format: functional, organism-based; conditions: MTCC 2470, 24 h
[15] = test system: Staphylococcus aureus; assay: Bactericidal activity against Staphylococcus aureus MLS-16 MTCC 2940 after 24 hrs by agar plating method; format: functional; conditions: MLS-16 MTCC 2940, 24 h
[16] = test system: Micrococcus luteus; assay: Bactericidal activity against Micrococcus luteus MTCC 2470 after 24 hrs by agar plating method; format: functional; conditions: MTCC 2470, 24 h
[17] = test system: Escherichia coli; assay: Antimicrobial activity against Escherichia coli MTCC 739 after 24 hrs by well diffusion method; format: functional
[18] = test system: Staphylococcus aureus; assay: Antimicrobial activity against Staphylococcus aureus MTCC 96 after 24 hrs by well diffusion method; format: functional
[19] = test system: HeLa; assay: Cytotoxicity against human HeLa cells after 24 hrs by MTT assay; format: functional, cell-based
[20] = test system: DU-145; assay: Cytotoxicity against human DU145 cells after 24 hrs by MTT assay; format: functional, cell-based; conditions: DU-145, 24 h
[21] = test system: Staphylococcus aureus; assay: Antimicrobial activity against Staphylococcus aureus MTCC 96 assessed as inhibition of biofilm formation after 24 hrs by crystal violet staining-based assay; format: functional, organism-based; conditions: MTCC 96, 24 h
[22] = test system: Escherichia coli; assay: Bactericidal activity against Escherichia coli MTCC 739 after 24 hrs by agar plating method; format: functional; conditions: MTCC 739, 24 h
[23] = test system: Staphylococcus aureus; assay: Antimicrobial activity against Staphylococcus aureus MLS-16 MTCC 2940 assessed as inhibition of biofilm formation after 24 hrs by crystal violet staining-based assay; format: functional, organism-based; conditions: MLS-16 MTCC 2940, 24 h
[24] = test system: Bacillus subtilis; assay: Antimicrobial activity against Bacillus subtilis MTCC 121 after 24 hrs by well diffusion method; format: functional
[25] = test system: Candida albicans; assay: microbe, parasite or virus in culture; conditions: MTCC 3017, 24 h
Description: as §1

Compound | MIC [3] | MIC ([5]; MLS-16 MTCC 2940, 24 h) | IC50 [7] | IC50 [8] | MIC ([9]; MTCC 2453, 24 h) | MIC ([10]; MTCC 530, 24 h) | MIC ([13]; MTCC 2470, 24 h) | MIC ([17]; MTCC 739, 24 h) | MIC ([18]; MTCC 96, 24 h) | IC50 [19] | IC50 [20] | MIC ([24]; MTCC 121, 24 h) | further results
CCCCCCCCCCn1nc(-n2cc(COc3cc(C(F)(F)F)nc(N)n3)nn2)c2ccc(C(F)(F)F)nc21 | inactive | 7.8 µg/mL (≈ 13.3 µM) | 4.2 µM | 37.2 µM | 7.8 µg/mL (≈ 13.3 µM) | 7.8 µg/mL (≈ 13.3 µM) | 15.6 µg/mL (≈ 26.6 µM) | 7.8 µg/mL (≈ 13.3 µM) | 7.8 µg/mL (≈ 13.3 µM) | 34.3 µM | 5.8 µM | 15.6 µg/mL (≈ 26.6 µM) | IC50 [1]: 3.9 µg/mL (≈ 6.66 µM); MBC [2]: 31.2 µg/mL (≈ 53.3 µM); MBC [4]: 15.6 µg/mL (≈ 26.6 µM); MBC [6]: 7.8 µg/mL (≈ 13.3 µM); IC50 [11]: 3.9 µg/mL (≈ 6.66 µM); MBC [12]: 15.6 µg/mL (≈ 26.6 µM); IC50 [14]: 3.9 µg/mL (≈ 6.66 µM); MBC [15]: 7.8 µg/mL (≈ 13.3 µM); MBC [16]: 15.6 µg/mL (≈ 26.6 µM); IC50 [21]: 7.8 µg/mL (≈ 13.3 µM); MBC [22]: 15.6 µg/mL (≈ 26.6 µM); IC50 [23]: 3.9 µg/mL (≈ 6.66 µM)
O=c1[nH]cc(F)c(=O)[nH]1 [FLUOROURACIL] |  |  | 1.3 µM | 1.4 µM |  |  |  |  |  | 1.3 µM | 1.5 µM |  | 
Nc1nc(OCc2cn(-c3nn(CCC(F)(F)C(F)(F)C(F)(F)C(F)(F)C(F)(F)C(F)(F)C(F)(F)C(F)(F)F)c4nc(C(F)(F)F)ccc34)nn2)cc(C(F)(F)F)n1 | inactive | > 250 µg/mL | 33.7 µM | > 100 µM | > 250 µg/mL | > 250 µg/mL | > 250 µg/mL | > 250 µg/mL | > 250 µg/mL | > 100 µM | 37.7 µM | > 250 µg/mL | 
C=CCn1nc(-n2cc(Cn3c(N)nc(C(F)(F)F)cc3=O)nn2)c2ccc(C(F)(F)F)nc21 |  |  | > 100 µM | 20.2 µM |  |  |  |  |  | 18.2 µM | > 100 µM |  | 
CCCCCCCCn1nc(-n2cc(COc3cc(C(F)(F)F)nc(N)n3)nn2)c2ccc(C(F)(F)F)nc21 | inactive | > 250 µg/mL | 5.7 µM | 24.7 µM | > 250 µg/mL | > 250 µg/mL | > 250 µg/mL | > 250 µg/mL | > 250 µg/mL | 22.7 µM | 6.3 µM | > 250 µg/mL | 
Clc1ccc(COC(Cn2ccnc2)c2ccc(Cl)cc2Cl)c(Cl)c1 (configuration not stated) [MICONAZOLE] |  |  |  |  |  |  |  |  |  |  |  |  | MIC [25]: 7.8 µg/mL (≈ 18.7 µM); MIC [5]: inactive; MIC [9]: inactive; MIC [10]: inactive; MIC [13]: inactive; MIC [17]: inactive; MIC [18]: inactive; MIC [24]: inactive
C#CCn1nc(-n2cc(COc3cc(C(F)(F)F)nc(N)n3)nn2)c2ccc(C(F)(F)F)nc21 | inactive | > 250 µg/mL | 4.1 µM | > 100 µM | > 250 µg/mL | > 250 µg/mL | > 250 µg/mL | > 250 µg/mL | > 250 µg/mL | > 100 µM | 4.7 µM | > 250 µg/mL | 
CCn1nc(-n2cc(COc3cc(C(F)(F)F)nc(N)n3)nn2)c2ccc(C(F)(F)F)nc21 | inactive | > 250 µg/mL | 25.4 µM | > 100 µM | > 250 µg/mL | > 250 µg/mL | > 250 µg/mL | > 250 µg/mL | > 250 µg/mL | > 100 µM | 27.7 µM | > 250 µg/mL | 
C#CCn1nc(-n2cc(Cn3c(N)nc(C(F)(F)F)cc3=O)nn2)c2ccc(C(F)(F)F)nc21 |  |  | 21.2 µM | 12.4 µM |  |  |  |  |  | 10.2 µM | 23.4 µM |  | 
O=C(O)c1cn(C2CC2)c2cc(N3CCNCC3)c(F)cc2c1=O [CIPROFLOXACIN] | inactive | 0.9 µg/mL (≈ 2.72 µM) |  |  | 0.9 µg/mL (≈ 2.72 µM) | 0.9 µg/mL (≈ 2.72 µM) | 0.9 µg/mL (≈ 2.72 µM) | 0.9 µg/mL (≈ 2.72 µM) | 0.9 µg/mL (≈ 2.72 µM) |  |  | 0.9 µg/mL (≈ 2.72 µM) | MBC [2]: 1.17 µg/mL (≈ 3.53 µM); MBC [4]: 0.58 µg/mL (≈ 1.75 µM); MBC [6]: 1.17 µg/mL (≈ 3.53 µM); MBC [12]: 0.58 µg/mL (≈ 1.75 µM); MBC [15]: 1.17 µg/mL (≈ 3.53 µM); MBC [16]: 0.58 µg/mL (≈ 1.75 µM); MBC [22]: 0.58 µg/mL (≈ 1.75 µM)
